The results in this text go back to patent publication US20100247435A1, “MEASUREMENT OF NEURAL ACTIVITY” (priority 2007, published 2010).

This data set in a line: Biodistribution of 3H compound in rat. Format: in vivo, Rats (Wistar). To be noted: Wistar rat, 2, 5, 20 and 40 min p.i. How it is done: A tritiated version of 3-[2,4-Difluoro-phenoxy]-phenyl-pyrazole-1-carboxylic acid amide (“Hammersmith compound” in FIG. 1) was custom prepared by GE Healthcare, Cardiff.
Rats (Wistar, ca. 150 g; Charles River UK Ltd) were injected with 0.37 MBq of [^3H]-3-[2,4-Difluoro-phenoxy]-phenyl-pyrazole-1-carboxylic acid amide, as an intravenous bolus via the tail vein. Rats were killed by cervical dislocation at 2, 5, 20 and 40 min post injection (p.i.). Brain (separated as cortex and hippocampus), blood, and major organs were collected, weighed and burned using a Packard Tissue Oxidizer model 307 (Packard Instrument Co., Meriden, Conn.). Samples were then counted in a β-counter (Rack Beta, Perkin Elmer LAS (UK) Ltd).

Regarding `NC(=O)n1ccc(-c2ccc(Oc3ccc(F)cc3F)cc2)n1` [[^3H]-3-[2,4-Difluoro-phenoxy]-phenyl-pyrazole-1-carboxylic acid amide], the time activity curves entry (0.37 MBq i.v., FIG. 1) is on record as “consistent with reversible binding”. The “brain uptake of the compound” value (0.37 MBq intravenous bolus via tail vein, % id/g shown in FIG. 1) is recorded as “good”.
